# Source: patent US11845774B2, “Sterol derivatives and preparation method and uses thereof” (BEIJING PEKING UNIVERSITY WBL BIOTECH CO., LTD., priority 2011, dated 2023)
# Key:
# [1] = molecular target: T1, HMG-CoA reductase (rat liver microsomes) (Rattus norvegicus, UniProt P51639); assay: Test of activity of inhibiting HMG-CoA reductase (rate of decline of OD340); assay type: biochemical; settings: for Slope (rate of decline of OD340): blank control slope 16.0
# T1 construct: taking out liver of male rat, washing with KESD buffer solution; from tissue; host or cells: liver of male rat (microsomal fraction, glycerol/37 °C treatment, 35-50% ammonium sulfate fraction)
# T1 sequence (P51639 1-887): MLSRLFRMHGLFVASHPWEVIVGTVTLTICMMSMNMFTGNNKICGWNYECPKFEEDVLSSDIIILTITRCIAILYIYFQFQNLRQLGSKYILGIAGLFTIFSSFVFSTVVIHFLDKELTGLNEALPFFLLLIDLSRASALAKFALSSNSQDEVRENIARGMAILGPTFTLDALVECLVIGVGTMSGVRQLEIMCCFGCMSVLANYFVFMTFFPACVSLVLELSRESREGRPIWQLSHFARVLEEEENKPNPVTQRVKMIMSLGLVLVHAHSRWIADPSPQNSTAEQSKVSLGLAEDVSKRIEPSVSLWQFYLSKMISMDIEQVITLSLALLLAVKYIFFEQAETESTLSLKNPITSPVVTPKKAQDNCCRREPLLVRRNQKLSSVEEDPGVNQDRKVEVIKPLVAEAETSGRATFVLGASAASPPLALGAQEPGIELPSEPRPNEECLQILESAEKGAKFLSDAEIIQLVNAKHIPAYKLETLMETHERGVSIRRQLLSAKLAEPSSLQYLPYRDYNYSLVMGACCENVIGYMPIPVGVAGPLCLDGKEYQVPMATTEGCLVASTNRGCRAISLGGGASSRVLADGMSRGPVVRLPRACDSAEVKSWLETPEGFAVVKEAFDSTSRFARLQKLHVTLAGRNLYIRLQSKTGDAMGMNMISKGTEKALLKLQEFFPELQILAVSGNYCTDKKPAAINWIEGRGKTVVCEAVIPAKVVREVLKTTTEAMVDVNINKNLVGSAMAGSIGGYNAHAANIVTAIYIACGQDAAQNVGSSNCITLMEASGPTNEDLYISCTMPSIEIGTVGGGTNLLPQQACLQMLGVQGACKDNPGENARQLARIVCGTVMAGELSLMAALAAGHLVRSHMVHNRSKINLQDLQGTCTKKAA
# Protocol: Rat liver microsomes (HMG-CoA reductase), could be commercially available or prepared by the following preparation method: taking out liver of male rat, washing with KESD buffer solution, centrifuging under 1200 g for 15 minutes, collecting supernatant, then centrifuging under 105,000 g twice, 90 minutes for each time, and collecting centrifugation deposit. The centrifugation deposit was added with 8.3% of glycerol, heated with 37° C. bath for 1 hour. The crude product of rat liver microsomes was purified with saturated ammonium sulfate, and 35-50% of purified fraction was collected. The purified fraction obtained could be stored in −80° C. refrigerator.
# Compound of Formula II was dissolved in 75% ethanol solution, with initial concentration of 8.0 mg/mL, and diluted in gradient manner, to reach 4.0 mg/mL, 2.0 mg/mL, 1.0 mg/mL; lovastatin was used as positive control, dissolved with 75% ethanol solution to reach concentration of 2.0 mg/mL; in the test system, total volume was 250 μL, concentrations of ingredients were separately: potassium chloride 200 mM, potassium dihydrogen phosphate 160 mM, ethylenediamine tetraacetic acid 4 mM, dithiothreitol 10 mM, […] and 3-hydroxy-3-methylglutary coenzyme A as two substrates separately had concentrations of: 200 μM and 50 μM, pH6.8, 30 μL of enzyme was added, 4 test groups were separately added with 10 μL of new compound solutions with different concentrations, the positive control group was added with 10 μL of lovastatin solution, the blank control group was added with 10 μL of 75% ethanol solution, and dynamitic changes of OD340 were detected with Versamax ELISA at 37° C. condition. The rate of decline of OD340 (expressed in slope value) as detected within 5 minutes was used to evaluate the activity of HMG-CoA reductase, and then to evaluate the activity of enzyme inhibitor and the results were shown in Table 2.
# [2] = tested on: mice hepatoma cell line H22; assay: MTT test of inhibiting cancer cells, H22; assay type: cell-based; settings: Mus musculus, 72 hours, FIG. 2, read-out: IC50 value, growth of H22
# Protocol: (§1) Cancer cells of exponential growth phase were inoculated on 96-well plate, 2×10^4 cells/well, added with drug until final drug concentrations were: 500, 250, 125, 62.5, 31.25, 15.625 and 7.8125 μg/mL, cultured at 37° C. in 5% CO2 cell culture incubator for 72 hours, then added with MTT, 10 μL/well, incubated in dark at 37° C. for 4 hours, culture medium was removed, 150 μL of DMSO or acidified isopropanol was added, vibrated for 5 minutes, and then OD values were measured under wavelength of 570 nm. This was repeated for 3 times, and a blank control was set. These cell strains used the same culture medium, i.e., RPMI1640 culture medium containing 10% fetal bovine serum and 1% double antibody (penicillin and steptomycin).
# (§2) Calculation Formula: Cell survival rate=(OD value of test group/OD value of control group)×100%.
# [3] = tested on: mice sarcoma cell line S180; assay: MTT test of inhibiting cancer cells, S180; assay type: cell-based; settings: 72 hours, FIG. 4, concentration-effect relationship
# Protocol: as §1, §2
# [4] = final concentration in system 40 μg/mL
# [5] = final concentration in system 80 μg/mL
# [6] = final concentration in system 160 μg/mL
# [7] = final concentration in system 320 μg/mL
structure (smiles),measurement,setting,value
"C[C@@H](C(O)C1OC2C[C@H]3C4=CC=C5CC(O)CC[C@]5(C)[C@H]4CC[C@]3(C)[C@H]2[C@@]1(C)O)C(C)(C)O (some centres unmarked) [Compound of Formula II, 16,22-epoxy-ergosta-5,7-dien-3,20,23,25-tetraol]",Inhibition rate,[1]; [4],14.4%
same,Slope (rate of decline of OD340),[1]; [4],13.7
same,Inhibition rate,[1]; [5],29.4%
same,Slope (rate of decline of OD340),[1]; [5],11.3
same,Inhibition rate,[1]; [6],45.6%
same,Slope (rate of decline of OD340),[1]; [6],8.7
same,Inhibition rate,[1]; [7],53.1%
same,Slope (rate of decline of OD340),[1]; [7],7.5
same,IC50,"[1]; read-out: IC50 value, inhibition of activity of HMG-CoA reductase (converted)",~543 µM
same,IC50,[2],~50 µg/mL
same,inhibition effect on growth of S180 (in words),[3],inhibition effect
